Assay [1] concerns the target T1, Type 1 InsP3 receptor isoform S2 (Sus scrofa, UniProt P79248). Description: Binding affinity was determined by its ability to displace specifically bound […] from purified porcine cerebellum membrane. The format is tissue-based.
Assay [2] has as its target T1, Type 1 InsP3 receptor isoform S2. Description: Binding affinity of compound was determined by its ability to displace specifically bound […] from purified porcine cerebellum membrane. Format: tissue-based.

Results on 13 molecules are retold here after ChEMBL document CHEMBL1128637, “Enantioselective synthesis of inositols as intermediates for the preparation of deoxy-inositol phosphates from D-galactose” (Bioorg Med Chem Lett, 1995).

T1 sequence (P79248 whole entry, canonical isoform): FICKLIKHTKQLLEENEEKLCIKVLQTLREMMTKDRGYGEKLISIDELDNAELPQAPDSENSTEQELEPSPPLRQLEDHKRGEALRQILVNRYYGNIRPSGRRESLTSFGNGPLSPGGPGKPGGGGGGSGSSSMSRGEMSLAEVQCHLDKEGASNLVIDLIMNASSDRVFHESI

With `OC1CC(O)C2OC3(CCCCC3)OC2C1OCc1ccccc1` (stereo not drawn), the IC50 entry in assay [1] is “Not Active”.

Consider `O=P(OCc1ccccc1)(OCc1ccccc1)OC1CC(OP(=O)(OCc2ccccc2)OCc2ccccc2)C2OC3(CCCCC3)OC2C1OCc1ccccc1` (stereo not drawn), for which the IC50 result in assay [1] is on record as “Not Active”.

Take `COC1OC(CBr)C2OC3(CCCCC3)OC2C1O` (stereo not drawn): the IC50 result in assay [1] is on record as “Not Active”.

With `C=C1OC(OC)C(OCc2ccccc2)C2OC3(CCCCC3)OC12` (stereo not drawn), the IC50 entry in assay [1] is recorded as “Not Active”.

Regarding `O=P(OCc1ccccc1)(OCc1ccccc1)OC1CC(OP(=O)(OCc2ccccc2)OCc2ccccc2)C(OP(=O)(OCc2ccccc2)OCc2ccccc2)C2OC3(CCCCC3)OC12` (stereo not drawn), the IC50 entry in assay [1] is reported as “Not Active”.

Turning to `O=P(O)(O)OC1CC(OP(=O)(O)O)C(OP(=O)(O)O)C(O)C1O` (stereo not drawn), the IC50 in assay [2] was 1500 nM. This lies in the single-digit micromolar range.

In the case of `COC1OC(CBr)C2OC3(CCCCC3)OC2C1OCc1ccccc1` (stereo not drawn), in assay [1], the IC50 result was “Not Active”.

As to `O=C1CC(O)C(OCc2ccccc2)C2OC3(CCCCC3)OC12` (stereo not drawn), the IC50 entry in assay [1] was “Not Active”.

As for `OC1CC(O)C2OC3(CCCCC3)OC2C1O` (stereo not drawn), in assay [1], the IC50 entry was “Not Active”.

Regarding `O=P(O)(O)O[C@@H]1[C@H](O)[C@H](O)[C@@H](OP(=O)(O)O)[C@H](OP(=O)(O)O)[C@H]1O` [INS(1,4,5)P3], the IC50 in assay [2] was 20 nM.

On to `CO[C@@H]1O[C@@H](CO)[C@@H]2OC3(CCCCC3)O[C@@H]2[C@@H]1O`, for which the IC50 result in assay [1] was “Not Active”.

For the molecule `CO[C@@H]1O[C@H](CO)[C@H](O)[C@H](O)[C@H]1O`, in assay [1], the IC50 result is on record as “Not Active”.

Regarding `O[C@H]1[C@@H](O)[C@H](O)C[C@@H](O)[C@H]1O`, in assay [1], the IC50 entry is “Not Active”.
